Structures can show the parent of a compound that is named as a salt. Where two headings read alike, the source gives them in different places.

One assay concerns the target T1, CRF receptor (Rattus norvegicus, UniProt P35353).
T1 construct: the cerebral cortex was removed and the tissue homogenized; from tissue; host or cells: cerebral cortex membranes of male Sprague-Dawley rats
T1 sequence (P35353 24-415): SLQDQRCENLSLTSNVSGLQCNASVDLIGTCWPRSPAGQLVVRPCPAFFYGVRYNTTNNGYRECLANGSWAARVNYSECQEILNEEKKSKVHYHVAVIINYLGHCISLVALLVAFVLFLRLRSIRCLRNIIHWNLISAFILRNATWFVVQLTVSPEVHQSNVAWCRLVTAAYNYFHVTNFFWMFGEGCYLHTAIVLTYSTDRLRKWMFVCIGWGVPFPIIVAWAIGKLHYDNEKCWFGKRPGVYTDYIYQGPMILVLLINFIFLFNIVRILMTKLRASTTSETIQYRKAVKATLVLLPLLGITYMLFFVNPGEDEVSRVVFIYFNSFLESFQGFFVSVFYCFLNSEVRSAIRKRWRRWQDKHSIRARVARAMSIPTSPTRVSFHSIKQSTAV
Briefly: In vitro receptor binding: inhibition of specific binding of [125I]tyrosine-oCRF to rat cerebral cortex membranes. The conditions noted are these: [125I]Tyr-oCRF 50-100 pM, 2 hours at room temperature. On the procedure: The potency of the compounds of the invention as inhibitors of the specific binding of radiolabeled CRF to rat cerebral cortex membranes was examined using a standard in vitro radioligand binding technique. […] The homogenate was centrifuged at 48,000×g for 10 minutes at 4° C. The supernatant was removed, the tissue pellet suspended in the original volume of fresh homogenization buffer using a Polytron and centrifuged as before. […] Incubation buffer consists of 50 mM Hepes (pH 7.0 at 22° C.) containing 10 mM MgCl2, 2 mM EGTA, 0.1 mM bacitracin, 100 KIU (kallikrein inhibitor units)/mL aprotinin and 0.1% BSA (bovine serum albumin). […] Nonspecific binding was determined in the presence of 1 μM oCRF. The binding reaction was allowed to proceed for 2 hours at room temperature. Bound radioligand was separated from the incubation medium by centrifugation in a Beckman microfuge for 5 minutes at 12,000×g. The supernatant was aspirated and the resulting pellet was washed with 1 mL of cold phosphate buffered saline (pH 7.2) containing 0.01% of Triton X-100.
Tyr-oCRF to rat cortical membranes was determined on at least three separate occasions using 8-10 concentrations of each compound and utilizing triplicate incubations. The IC50 and apparent Hill coefficient for each compound were calculated using a computer-assisted log-logit analysis.

Assay [1] concerns the target CRF-stimulated adenylate cyclase. Nature of the assay: Inhibition of CRF-stimulated adenylate cyclase activity (rat frontal cortex). Type of assay: biochemical. Particulars: 1 μM oCRF, 37° C., 10 minutes. The text has this:
CRF antagonist activity is established by the ability of the compounds to antagonize CRF-stimulated adenylate cyclase activity, it having been established that CRF receptors are coupled to a guanine nucleotide regulatory protein that activates adenylate cyclase [G. Aguilera et al., Neuroendocrinology, 43, 79 (1986); G. Battaglia et al., Synapse, 1, 572 (1987)].
Male Sprague-Dawley rats (175-250 g) were sacrificed by decapitation, the frontal cortex was dissected and homogenized in 30 volumes (w/v) of ice-cold buffer (50 mM Tris HCl, 10 mM MgCl2, 2 mM EGTA; pH 7.2 at 22° C.). The homogenate was centrifuged at 40,000×g for 3 minutes (4° C.), the supernatant discarded and the pellet resuspended in original volume of fresh homogenization buffer. Following centrifugation at 40,000×g for 30 minutes, the resulting pellet was suspended to a tissue concentration of 20 mg original wet weight of tissue per mL (approximately 40-60 μg protein/mL). For determination of basal adenylate cyclase activity, assays are carried out at 37° C. for 10 minutes in 250 μL of buffer containing 100 mM Tris HCl, 10 mM MgCl2, 0.4 mM EGTA, 0.1% BSA, 1 mM isobutylmethylxanthine (IBMX), 3 units/tube phosphocreatine kinase, 5 mM creatine phosphate, 100 μM guanosine. Maximal stimulation of adenylate cyclase activity was accomplished by the addition of 10^-6 M oCRF. Stimulated enzyme activity generally represented a 75-95% increase over basal levels. Reactions were initiated by the addition of tissue and terminated by the addition of 150 μL of 50 mM Tris HCl, 45 mM ATP, 2% sodium dodecyl sulfate (SDS), and [^3 H] cAMP (approximately 40,000 dpm). The [^3 H]cAMP was added to each assay tube to monitor recovery of cAMP during subsequent chromatography steps. Separation of [^32 P]cAMP from [^32 P]ATP was accomplished by sequential elution over Dowex and alumina columns. The eluate (4 mL) was collected in 20 mL scintillation vials to which 8 mL of Beckman EP fluor was added. Vials were shaken for 30 minutes prior to measuring ^3 H and ^32 P by scintillation counting. All data were fed directly from the liquid scintillation counter via RS232 port to a VAX 8300 computer. Individual data points were expressed as pmoles of cAMP formed/10 minutes/mg protein. Protein content of tissue samples was measured using the BioRad method with bovine serum albumin serving as the standard.
Determination of antagonist activity was accomplished by addition of at least six concentrations of the compound (10^-8 -10^-4 M), evaluated in triplicate, in the presence of a maximally stimulating concentration of oCRF (1 μM). IC50 values were derived from a log-logit transformation of the data on a Vax 8300.

The mark [2] stands for this setting: Table II, Formula II (disulfides), read-out: Inhibition of CRF Binding, Rat Cerebral Cortex Membrane, IC50.
[3] abbreviates: Table II, Formula II (disulfides).
The mark [4] stands for this setting: Table I, Formula I, read-out: Inhibition of CRF Binding, Rat Cerebral Cortex Membrane, IC50.
Where [5] appears, read: Inhibition of CRF Binding, Rat Cerebral Cortex Membrane, IC50, Table I, Formula I.

Consider `CCn1c(C)c(SSc2c(C)n(CC)n(Cc3ccccc3)c2=O)c(=O)n1Cc1ccccc1` [Formula II: CH2 Ph, C2 H5, CH3, 1-benzyl-2-ethyl-3-methyl-5-oxo-3-pyrazolin-4-yl disulfide], for which the figures for the IC50 (at CRF receptor (setting [2]); in assay [1] (setting [3])) were 4.3 µM and 3.8 µM, respectively.
On to `CCc1c(SC#N)c(=O)n(CC)n1CC` [Formula I: C2 H5, C2 H5, C2 H5, SCN, 1,2,3-triethyl-5-oxo-3-pyrazolin-4-yl thiocyanate], for which the IC50 (in general, the concentration needed to halve the response being measured) at CRF receptor (setting [4]) worked out at 67 µM; in assay [1] (Table I, Formula I), 45 µM.
With `Cc1c(SC#N)c(=O)[nH]n1-c1ccc([N+](=O)[O-])cc1` [Formula I: H, 4-NO2 Ph, CH3, SCN], the IC50 on CRF receptor (setting [4]) was 32 µM; in assay [1] (Table I, Formula I) it was 69.3 µM.
As to `Cc1c(SC#N)c(=O)n(-c2c(Cl)cccc2Cl)n1C` [Formula I: 2,6-Cl2 Ph, CH3, CH3, SCN, 2,3-dimethyl-5-oxo-1-(2,6-dichlorophenyl)-3-pyrazolin-4-yl thiocyanate], the IC50 on CRF receptor (setting [5]) is 18.9 µM; in assay [1] (Table I, Formula I), 29.9 µM.
Turning to `CCn1c(C)c(SC#N)c(=O)n1-c1ccc(Cl)c(Cl)c1` [Formula I: 3,4 Cl2 Ph, C2 H5, CH3, SCN, 2-ethyl-3-methyl-5-oxo-1-(3,4-dichlorophenyl)-3-pyrazolin-4-yl thiocyanate], the IC50 at CRF receptor (setting [5]) turned out to be 4.9 µM; in assay [1] (Table I, Formula I) it was 1.4 µM.
In the case of `Cc1c(SC#N)c(=O)n(-c2ccccc2)n1-c1ccccc1` [Formula I: Ph, Ph, CH3, SCN, 3-methyl-5-oxo-1,2-phenyl-3-pyrazolin-4-yl thiocyanate], the IC50 came to 16.1 µM at CRF receptor (setting [4]) and 6.1 µM in assay [1] (Table I, Formula I).
On to `Cc1c(SSc2c(C)n(C)n(-c3ccccc3)c2=O)c(=O)n(-c2ccccc2)n1C` [Formula II: Ph, CH3, CH3, 2,3-Dimethyl-5-Oxo-1-Phenyl-3-Pyrazolin-4-yl Disulfide], for which the IC50 on CRF receptor (setting [2]) is 2.2 µM; in assay [1] (setting [3]), 1.1 µM.
As for `Cn1c(CN2CCOCC2)c(SSc2c(CN3CCOCC3)n(C)n(-c3ccccc3)c2=O)c(=O)n1-c1ccccc1` [Formula II: Ph, CH3, MorCH2, 2HCl, 2-methyl-3-morpholinylmethyl-5-oxo-1-phenyl-3-pyrazolin-4-yl disulfide], the IC50 on CRF receptor (setting [2]) amounted to 8.2 µM.
Consider `CCn1c(C)c(SC#N)c(=O)n1-c1cccc(Cl)c1` [Formula I: 3-ClPh, C2 H5, CH3, SCN, 2-ethyl-3-methyl-5-oxo-1-(3-chlorophenyl)-3-pyrazolin-4-yl thiocyanate], for which the IC50 at CRF receptor (setting [4]) came out at 7.4 µM; in assay [1] (Table I, Formula I), 6.9 µM.
Take `Cc1ccc(-n2c(=O)c(SC#N)c(C)n2C)cc1` [Formula I: 4-CH3 Ph, CH3, CH3, SCN, 2,3-dimethyl-5-oxo-1-(4-methylphenyl)-3-pyrazolin-4-yl thiocyanate]: the IC50 came to 8.6 µM on CRF receptor (setting [4]) and 9.1 µM in assay [1] (Table I, Formula I).
Take `Cn1c(N)c(SC#N)c(=O)n1-c1ccccc1` [Formula I: Ph, CH3, NH2, SCN, 3-amino-2-methyl-5-oxo-1-phenyl-3-pyrazolin-4-yl thiocyanate]: the IC50 on CRF receptor (setting [4]) was 14.4 µM; in assay [1] (Table I, Formula I) it was 49.6 µM.
For the compound `Cn1c(CN2CCOCC2)c(SC#N)c(=O)n1-c1ccccc1` [Formula I: Ph, CH3, MorCH2, SCN, 2-methyl-3-mopholinomethyl-5-oxo-1-phenyl-3-pyrazolin-4-yl thiocyanate], at CRF receptor (setting [4]), the IC50 came out at 39.8 µM.
In the case of `CCn1c(C)c(SC#N)c(=O)n1-c1ccccc1` [Formula I: Ph, C2 H5, CH3, SCN, 2-ethyl-3-methyl-5-oxo-1-phenyl-3-pyrazolin-4-yl thiocyanate], the IC50 on CRF receptor (setting [4]) was found to be 12.2 µM; in assay [1] (Table I, Formula I) it was 6.5 µM.
`Cc1c(SSc2c(C)n(C)n(-c3ccc(I)cc3)c2=O)c(=O)n(-c2ccc(I)cc2)n1C` [Formula II: 4-IPh, CH3, CH3, 2,3-dimethyl-5-oxo-1-(4-iodophenyl)-3-pyrazolin-4-yl disulfide]: the IC50 on CRF receptor (setting [2]) amounted to 5.1 µM.
In the case of `CCn1c(C)c(SSc2c(C)n(CC)n(-c3ccc(Cl)c(Cl)c3)c2=O)c(=O)n1-c1ccc(Cl)c(Cl)c1` [Formula II: 3,4-Cl2 Ph, C2 H5, CH3, 2-ethyl-3-methyl-5-oxo-1-(3,4-dichlorophenyl)-3-pyrazolin-4-yl disulfide], the IC50 was determined as 2.9 µM on CRF receptor (setting [2]) and 4.3 µM in assay [1] (setting [3]).
Regarding `CCc1c(SC#N)c(=O)n(-c2ccc(OC)cc2)n1C` [Formula I: 4-OMePh, CH3, C2 H5, SCN], the IC50 stood at 9.3 µM at CRF receptor (setting [4]) and 11.9 µM in assay [1] (Table I, Formula I).
Regarding `CC(=O)Sc1c(C)n(C)n(-c2ccccc2)c1=O` [Formula I: Ph, CH3, CH3, SAc, 2,3-dimethyl-5-oxo-1-phenyl-3-pyrazolin-4-yl thioacetate], the IC50 on CRF receptor (setting [4]) came to 13.7 µM; in assay [1] (Table I, Formula I) it was 2.9 µM.
Take `CCn1c(C)c(SC#N)c(=O)n1-c1ccc([N+](=O)[O-])cc1` [Formula I: 4-NO2 Ph, C2 H5, CH3, SCN, 2-ethyl-3-methyl-5-oxo-1-(4-nitrophenyl)-3-pyrazolin-4-yl thiocyanate]: the IC50 on CRF receptor (setting [4]) is 5.7 µM; in assay [1] (Table I, Formula I) it was 2 µM.
The like results for `Cc1c(SC#N)c(=O)n(-c2cccc(C#N)c2)n1C` [Formula I: 3-CNPh, CH3, CH3, SCN, 2,3-dimethyl-5-oxo-1-(3-cyanophenyl)-3-pyrazolin-4-yl thiocyanate] were, in that order, 15.5 µM and 6.9 µM.
On to `Cc1c(SSc2c(C)n(C)n(-c3cccc(Cl)n3)c2=O)c(=O)n(-c2cccc(Cl)n2)n1C` [Formula II: 6-Cl-2-Pyr, CH3, CH3, 2,3-dimethyl-5-oxo-1-(6-chloro-2-pyridyl)-3-pyrazolin-4-yl disulfide], for which, at CRF receptor (setting [2]), the IC50 worked out at 4.3 µM.
For the compound `Cc1c(SC#N)c(=O)n(-c2ccc(I)cc2)n1C` [Formula I: 4-IPh, CH3, CH3, SCN, 2,3-dimethyl-5-oxo-1-(4-iodophenyl)-3-pyrazolin-4-yl thiocyanate], at CRF receptor (setting [4]), the IC50 stood at 6.5 µM.
In the case of `Cc1c(SC#N)c(=O)n(-c2ccc3ccccc3c2)n1C` [Formula I: 2-Naphthyl, CH3, CH3, SCN, 2,3-dimethyl-1-naphthyl-5-oxo-3-pyrazolin-4-yl thiocyanate], the IC50 at CRF receptor (setting [4]) stood at 3.8 µM.
With `Cc1c(SSc2c(C)n(C)n(-c3ccc4ccccc4c3)c2=O)c(=O)n(-c2ccc3ccccc3c2)n1C` [Formula II: 2-Naphthyl, CH3, CH3, HCl, 2,3-dimethyl-1-naphthyl-5-oxo-3-pyrazolin-4-yl disulfide], the IC50 on CRF receptor (setting [2]) worked out at 3.3 µM.

These data come from patent US5063245A, “Corticotropin-releasing factor antagonism compounds” (Nova Pharmaceutical Corporation, priority 1990, dated 1991).
